From PMC4059138, “Structural Basis for Multiple Sugar Recognition of Jacalin-related Human ZG16p Lectin*^([image sbox.jpg])” (The Journal of Biological Chemistry, 2014) come the findings set out here.

Experiment [1] addresses T1, 15N-labeled human ZG16p(21–167) (Homo sapiens, UniProt O60844).
T1 construct: gene ZG16; residues 21-167 (signal peptide removed), 15N-labelled, E. coli pCold-PDI vector, tag removed as for the other construct; the purification says 21-159 for the same labelled protein; monomer
T1 sequence (O60844 21-167): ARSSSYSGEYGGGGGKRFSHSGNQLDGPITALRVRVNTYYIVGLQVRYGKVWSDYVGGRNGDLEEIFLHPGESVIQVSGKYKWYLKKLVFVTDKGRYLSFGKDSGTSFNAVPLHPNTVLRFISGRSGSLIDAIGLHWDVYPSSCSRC
The experiment in a line: 1H-15N HSQC NMR titration. The class given is binding. The text has this:
1H-15N HSQC NMR titration on 15N-labeled human ZG16p(21–167)

The target in experiment [2] is T2, human ZG16p(21–159) (Homo sapiens, UniProt O60844).
T2 construct: gene ZG16; residues 21-159, expressed in E. coli as (His)6-MBP fusion, tag removed by TEV protease; monomer
T2 sequence (O60844 21-159): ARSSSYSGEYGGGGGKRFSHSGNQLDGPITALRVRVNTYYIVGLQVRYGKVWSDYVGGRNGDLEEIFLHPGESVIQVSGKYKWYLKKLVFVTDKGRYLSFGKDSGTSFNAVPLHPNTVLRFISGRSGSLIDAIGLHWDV
The experiment in a line: X-ray crystallography, soaking, […] Å. The note with it: pH 6.5; mannose-binding pocket.

The target of experiment [3] is T2, human ZG16p(21–159). The experiment in a line: X-ray crystallography, soaking, […] Å. The note with it: pH 6.5; mannose-binding pocket. This is another data set of the same source.
Experiment [4] addresses T3, Human ZG16p(21–167), 15N-labeled (human, UniProt O60844 21-167, uniformly 15N-labeled).
T3 construct: zymogen granule protein 16 (ZG16p), human, residues 21-167; the same paragraph also calls the 15N-labeled protein ZG16p(21–159); also called zymogen granule protein 16; 15N-labeled ZG16p; source: E. coli, pCold-PDI vector, 15N-labeled Spectra 9 medium, purified (Ni-Sepharose, size exclusion chromatography)
T3 sequence (looked up): T1 sequence (O60844 21-167)
The experiment in a line: NMR titration; 1H-15N HSQC of 0.1–0.15 mM 15N-labeled ZG16p with increasing amounts of ligand; 298 K; PBS, pH 6.5, 10% D2O; Kd fitted from chemical shift changes (n = 3). The note with it: both partners purified.

Where [5] appears, read: PBS pH 6.5, 10% D2O, 298 K, mannose-binding pocket.

Where two headings read alike, the source gives them in different places. No end group written: not given here. *: point of attachment. αMan = OC[C@H]1O[C@H](*)[C@@H](O)[C@@H](O)[C@@H]1O

On to `OC[C@H]1O[C@@H](O[C@H]2[C@H](O)[C@@H](CO)OC(O)[C@@H]2O)[C@H](O)[C@@H](O)[C@@H]1O` (stereo partly shown) [Glcβ1–3Glc], for which the affinity in experiment [1] (setting [5]), expressed as Kd, was 7 ± 4 mM.

In the case of `N[C@@H](CO[C@H]1O[C@H](CO)[C@@H](O)[C@H](O)[C@@H]1O)C(=O)O` [Man-O-Ser], the “X-ray crystallography, soaking, 2.1 Å” value in experiment [2] was “structures of human ZG16p in complex with Man-O-Ser and Man-O-Thr were determined”.

With `C[C@@H](O[C@H]1O[C@H](CO)[C@@H](O)[C@H](O)[C@@H]1O)[C@H](N)C(=O)O` [Man-O-Thr], the “X-ray crystallography, soaking, 2.7 Å” value in experiment [3] is “structures of human ZG16p in complex with Man-O-Ser and Man-O-Thr were determined”. Besides, the Kd in experiment [1] amounted to 19 ± 11 mM.

Turning to `OC[C@H]1O[C@H](O[C@H]2[C@H](O)[C@@H](CO)OC(O)[C@H]2O)[C@@H](O)[C@@H](O)[C@@H]1O` (stereo partly shown) [Manα1–3Man], binding in experiment [1] (setting [5]) was put at a Kd of 13 ± 7 mM.

In experiment [1] (PBS pH 6.5, 10% D2O, 298 K, heparin site on flat surface adjacent to the mannose pocket), Heparin tetrasaccharide gave a Kd of 2 ± 1 mM.

B1: Man-α-O-heptapeptide Val-Glu-Pro-(Man-α-O-Thr)-Ala-Val-Ala (peptide)
peptide: VEPT(αMan)AVA
notes: Glycopeptide; also called Man-O-peptide; source: synthetic peptide (solid phase, Fmoc; HPLC and Sephadex G-15)
Turning to B1, in experiment [4], the Kd was determined as 3 mM.

The Kd is the constant that tells how readily two partners part at equilibrium.
